Measured values published in patent US8357654B2, “Multimeric CD40 ligands, method for preparing same and use thereof for preparing drugs” (Centre National de la Recherche Scientifique, priority 2004, dated 2013).
One block for each compound: values may come before it. Non-standard residues stand in square brackets, D forms with d. Residues, ends and D or L forms follow the SMILES beside them. Groups on a side chain read outwards from the residue. No end group written: not given here. *: point of attachment. Biotin = O=C1N[C@H]2[C@H](CS[C@H]2CCCCC(=O)*)N1; Ahx = NCCCCCC(=O)O

Columns and labels:
[1] = test system: BL41 Burkitt's lymphoma cells (CD40+); experiment: Apoptosis of BL41 Burkitt's lymphoma cells, flow cytometry after DiOC6 labelling; format: cell-based; settings: 16 hours
Procedure: (§1) The agonist effect of the ligands was tested by means of a simple biological test which is based on the property of certain B lymphomas of entering into apoptosis during the bridging of their membranous CD40 molecule (Tong et al., 1999). In fact, these B lymphomas enter into apoptosis during the bridging of their CD40 molecule by an anti-CD40 antibody or by soluble CD40L. The agonist ligands of CD40 will similarly induce an increase in the apoptosis of Burkitt's lymphoma cells which is measured by a precise analysis with flow cytometry.
(§2) BL41 Burkitt's or Raji (ATCC CCL-86) lymphoma cells (5.10^5/mL) two similar cell lines, are cultured in the presence of the different ligands at the desired concentrations. After 16 hours, the cells are labelled with 3,3′-dihexyloxacarbocyanine iodide (DiOC6) at 40 nM (Petit et al., 1995) in order to evaluate the percentage of apoptotic cells using flow cytometry.

[2] = target: T1, CD40-CD40L interaction (human CD40 muIg fusion protein, human CD154 muCD8 fusion protein) (Homo sapiens, UniProt P25942); experiment: BIAcore inhibition of the CD40-CD40L interaction; format: binding; settings: ligand at 1 μM, CD40L at 35 nM
T1 construct: purchased ANCELL Corporation
Text: (§3) The BIAcore 3000 is a device which allows the study of the interactions between two molecules. Based on surface plasmon resonance, it makes it possible to carry out measurements in real time and thus to follow the interaction kinetics (association and dissociation) of an “analyte” (which is found in an injected solution) with a “ligand” (immobilized on a microchip supporting the measurement). Kinetic measurements at different concentrations of analyte make it possible to calculate the affinity constants of the interaction between the ligand and the analyte. The microchip contains four cells with different measurements, which makes it possible to directly compare a reference cell on which a non-pertinent protein (a protein which has no affinity for the analyte studied but close to the ligand) is immobilized, with the cell on which the ligand is immobilized.
(§4) The test is carried out in two stages: measurement of the direct interaction of the ligands with the CD40 immobilized on the microchip and measurement of the inhibition of the CD40-CD40L interaction by the ligands.
(§5) Rabbit antibodies directed against the constant part of mouse immunoglobulins were immobilized on a microchip. […]
In order to regenerate the cells (i.e. to remove all the proteins adsorbed in non-covalent manner), a 10 mM HCl solution is injected at 5 μL/min over 1 minute. The cells are then ready for a new analysis.

[3] = target: T2, recombinant CD40 (human CD40 muIg fusion protein) (Homo sapiens, UniProt P25942); experiment: BIAcore direct interaction of the ligands with immobilized CD40; format: binding; settings: BIAcore 3000, kinetics of direct association to immobilized CD40, 30 μL/min over 4 minutes; read-out: dissociation constant
T2 construct: purchased ANCELL Corporation, Bayport, Minn
Text: as §3, §4, §5
In order to regenerate the cells (i.e. to remove all the proteins adsorbed in a non-covalent manner), a 50 mM HCl solution is injected at 5 μL/min over 1 minute. The cells are then ready for a new analysis.

[4] = test system: Raji (ATCC CCL-86) lymphoma cells (CD40+); experiment: Apoptosis of Raji lymphoma cells, flow cytometry after DiOC6 labelling; format: cell-based
Procedure: as §1, §2

T1 sequence (P25942 21-193 limits assumed): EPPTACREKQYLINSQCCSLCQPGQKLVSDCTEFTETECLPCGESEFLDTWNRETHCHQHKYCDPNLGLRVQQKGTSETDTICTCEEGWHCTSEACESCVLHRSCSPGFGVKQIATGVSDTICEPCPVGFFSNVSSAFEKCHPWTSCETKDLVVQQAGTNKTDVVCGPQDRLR
T2 sequence (P25942 21-193 limits assumed): as above

Compound: C[C@H]1NC(=O)[C@H](CCCCNC(=O)CCCCCNC(=O)[C@H](Cc2ccc(O)cc2)NC(=O)[C@H](Cc2ccc(O)cc2)NC(=O)CNC(=O)[C@@H](N)CCCCN)NC(=O)[C@@H](C)NC(=O)[C@H](CCCCNC(=O)CCCCCNC(=O)[C@H](Cc2ccc(O)cc2)NC(=O)[C@H](Cc2ccc(O)cc2)NC(=O)CNC(=O)[C@@H](N)CCCCN)NC(=O)[C@@H](C)NC(=O)[C@H](CCCCNC(=O)CCCCCNC(=O)[C@H](Cc2ccc(O)cc2)NC(=O)[C@H](Cc2ccc(O)cc2)NC(=O)CNC(=O)[C@@H](N)CCCCN)NC1=O [L4] (cyclo(K([Ahx-Tyr-Tyr-Gly-Lys])[dA]K([Ahx-Tyr-Tyr-Gly-Lys])[dA]K([Ahx-Tyr-Tyr-Gly-Lys])[dA]))
specific apoptosis ([1]; ligand at 12.5 μM, DiOC6 flow cytometry (FIG. 5C)): 24%

inhibition of the binding of CD40L to CD40 [2]: 100%
Compound: C[C@H]1NC(=O)[C@H](CCCCNC(=O)CCCCCNC(=O)[C@H](Cc2ccc(O)cc2)NC(=O)[C@H](Cc2ccc(O)cc2)NC(=O)[C@H]2CCCN2C(=O)[C@@H](N)CCCCN)NC(=O)[C@@H](C)NC(=O)[C@H](CCCCNC(=O)CCCCCNC(=O)[C@H](Cc2ccc(O)cc2)NC(=O)[C@H](Cc2ccc(O)cc2)NC(=O)[C@H]2CCCN2C(=O)[C@@H](N)CCCCN)NC(=O)[C@@H](C)NC(=O)[C@H](CCCCNC(=O)CCCCCNC(=O)[C@H](Cc2ccc(O)cc2)NC(=O)[C@H](Cc2ccc(O)cc2)NC(=O)[C@H]2CCCN2C(=O)[C@@H](N)CCCCN)NC1=O [L40] (cyclo(K([Ahx-Tyr-Tyr-dP-Lys])[dA]K([Ahx-Tyr-Tyr-dP-Lys])[dA]K([Ahx-Tyr-Tyr-dP-Lys])[dA]))

Kd [3]: 28 nM
Compound: C[C@H]1NC(=O)[C@H](CCCCNC(=O)CCCCCNC(=O)[C@H](Cc2ccc(O)cc2)NC(=O)[C@H](Cc2ccc(O)cc2)NC(=O)CNC(=O)[C@@H](N)CCCCN)NC(=O)[C@@H](CCCCNC(=O)CCCC[C@@H]2SC[C@@H]3NC(=O)N[C@@H]32)NC(=O)[C@H](CCCCNC(=O)CCCCCNC(=O)[C@H](Cc2ccc(O)cc2)NC(=O)[C@H](Cc2ccc(O)cc2)NC(=O)CNC(=O)[C@@H](N)CCCCN)NC(=O)[C@@H](C)NC(=O)[C@H](CCCCNC(=O)CCCCCNC(=O)[C@H](Cc2ccc(O)cc2)NC(=O)[C@H](Cc2ccc(O)cc2)NC(=O)CNC(=O)[C@@H](N)CCCCN)NC1=O [L41] (cyclo(K([Ahx-Tyr-Tyr-Gly-Lys])[dA]K([Ahx-Tyr-Tyr-Gly-Lys])[dA]K([Ahx-Tyr-Tyr-Gly-Lys])[dK](Biotin)))

Compound: H-Lys-Pro-Tyr-Tyr-Ahx-OH (H-KPYY[Ahx]-OH; SMILES NCCCC[C@H](N)C(=O)N1CCC[C@H]1C(=O)N[C@@H](Cc1ccc(O)cc1)C(=O)N[C@@H](Cc1ccc(O)cc1)C(=O)NCCCCCC(=O)O) [L45, control peptide in which D-Proline is replaced by L-Proline]
biological activity (induction of apoptosis), in words ([1]; dose-response (FIG. 5B, 5C)): no activity

Compound: L43: compound of formula (III-a) in which Rc is Ahx-(D)Pro-Tyr-Tyr-NH—(CH2)5—CO— (peptide [Ahx][dP]YY[Ahx]; chain K[dA]K[dA]K[dA]; also: three copies of chain 1 amide-linked via C-terminal Ahx to the three Lys side-chain amines of the ring (chain 2), head-to-tail to a chain's N/C-terminus)
effectiveness in inducing apoptosis, in words ([4]; Raji cells, 16 hours, dose-response (FIG. 5D)): less effective than its homologue L4
inhibition of the binding of CD40L to CD40 [2]: 30%

Compound: L62: compound of formula (III-a) in which Rc is H-Lys-ψ(CH2N)-(D)Pro-Tyr-Tyr-NH—(CH2)5—CO— (peptide H-K[dP]YY[Ahx]; chain K[dA]K[dA]K[dA]; also: reduced bond psi(CH2N) between Lys1 and D-Pro2 of chain 1, three copies of chain 1 amide-linked via C-terminal Ahx to the three Lys side-chain amines of the ring (chain 2), head-to-tail to a chain's N/C-terminus)
effectiveness and selectivity of apoptosis induction, in words ([4]; Raji and BL41 (CD40+) versus Jurkat (CD40−) cells, 16 hours (FIGS. 8A, 8B)): effective and selective ligand
